These results are taken from US12264159B2, “Functionalized heterocycles as antiviral agents” (Enanta Pharmaceuticals, Inc., priority 2018, dated 2025).

Where only a bound is given, the exact number is not on record here.

A word on the EC50: it is the concentration that produces a half-maximal response. Higher therefore signals weaker potency.

This experiment has as its system HBV in 2.2.15 cells. Description: 2.2.15 cells: viral product in cell lysates quantified via quantitative real time PCR. Format: cell-based, hepatitis B virus (HBV). To be noted: Hepatitis B virus, 120 h, day 5 post treatment, 50% reduction of viral product vs no drug controls, readout (qPCR, HBsAg or HBeAg) not specified for the column. How it is done:
2.2.15 cells are passaged upon attaining confluency in DMEM/F12 media in the presence of 10% FBS, Penn/Strep, and 250 ug/mL G418. Novel compounds are 5 fold serially diluted in DMSO and added to 96 well plates containing 35,000 cells/well at a 1:200 dilution so that the final concentration of DMSO is 0.5%. On day 5, post treatment cell lysates and supernatants are harvested for analysis.
Cells are lysed using Agilent Sidestep Lysis buffer, diluted 1:100 and quantified via quantitative real time PCR. Commercially available ELISA kits are used to quantitate the viral proteins HBsAg (Alpco) or HBeAg (US Biological) by following the manufacturer's recommended protocol after diluting samples to match the linear range of their respective assays. Irrespective of readout, compound concentrations that reduce viral product accumulation in the cell lysates or supernatants by 50% relative to no drug controls (EC50) are reported; EC50 ranges are as follows: A<0.1 μM; B 0.2-1 μM; C>1 μM.

As for `CC(C)[C@@H]1Cn2nc(C3CC3)c(-c3cn[nH]c3)c2-c2cc(=O)c(C(=O)O)cn21` [Example 137, (R)-2-cyclopropyl-6-isopropyl-10-oxo-1-(1H-pyrazol-4-yl)-5,6-dihydro-10H-pyrazolo[1,5-a]pyrido[2,1-c]pyrazine-9-carboxylic acid], the EC50 lay within 0.2 to 1 µM.
Under `CC(C)[C@@H]1Cn2nc(-c3cccc(O)c3)c(-c3cccc(O)c3)c2-c2c(F)c(=O)c(C(=O)O)cn21` [Example 190, (R)-11-fluoro-1,2-bis(3-hydroxyphenyl)-6-isopropyl-10-oxo-5,6-dihydro-10H-pyrazolo[1,5-a]pyrido[2,1-c]pyrazine-9-carboxylic acid] stands 0.2 to 1 µM; under `CC(C)(C)[C@@H]1Cn2nc(C3CC3)c(-c3ccnnc3)c2-c2cc(=O)c(C(=O)O)cn21` [Example 161, (R)-6-(tert-butyl)-2-cyclopropyl-10-oxo-1-(pyridazin-4-yl)-5,6-dihydro-10H-pyrazolo[1,5-a]pyrido[2,1-c]pyrazine-9-carboxylic acid], 0.2 to 1 µM; under `CC(C)(C)[C@@H]1Cn2ncc(-c3cncs3)c2-c2cc(=O)c(C(=O)O)cn21` [Example 106, (R)-6-(tert-butyl)-10-oxo-1-(thiazol-5-yl)-5,6-dihydro-10H-pyrazolo[1,5-a]pyrido[2,1-c]pyrazine-9-carboxylic acid], below 0.1 µM.
To `CC(C)(C)[C@@H]1Cn2ncc(Cl)c2-c2cc(=O)c(C(=O)O)cn21` [Example 99, (R)-6-(tert-butyl)-1-chloro-10-oxo-5,6-dihydro-10H-pyrazolo[1,5-a]pyrido[2,1-c]pyrazine-9-carboxylic acid] belongs 0.2 to 1 µM; to `CC(C)[C@@H]1Cn2nc(C3CC3)c(-c3cncc(F)c3)c2-c2cc(=O)c(C(=O)O)cn21` [Example 135, (R)-2-cyclopropyl-1-(5-fluoropyridin-3-yl)-6-isopropyl-10-oxo-5,6-dihydro-10H-pyrazolo[1,5-a]pyrido[2,1-c]pyrazine-9-carboxylic acid], below 0.1 µM.
Under `CC(C)[C@@H]1Cn2nc(-c3cccnc3)c(-c3cccnc3)c2-c2cc(=O)c(C(=O)O)cn21` [Example 177, (R)-6-isopropyl-10-oxo-1,2-di(pyridin-3-yl)-5,6-dihydro-10H-pyrazolo[1,5-a]pyrido[2,1-c]pyrazine-9-carboxylic acid] stands 0.2 to 1 µM.
Take `CC(C)[C@@H]1Cn2nc(-c3cncc(F)c3)c(-c3cncc(F)c3)c2-c2cc(=O)c(C(=O)O)cn21` [Example 174, (R)-1,2-bis(5-fluoropyridin-3-yl)-6-isopropyl-10-oxo-5,6-dihydro-10H-pyrazolo[1,5-a]pyrido[2,1-c]pyrazine-9-carboxylic acid]: the EC50 was in the range of 0.2 to 1 µM.
The molecule `CC(C)(C)[C@@H]1Cn2cc(-c3ccc(F)cc3)nc2-c2cc(=O)c(C(=O)O)cn21` [Example 90, (R)-6-(tert-butyl)-2-(4-fluorophenyl)-10-oxo-5,6-dihydro-10H-imidazo[1,2-a]pyrido[2,1-c]pyrazine-9-carboxylic acid] returned an EC50 of 0.2 to 1 µM.
The molecule `O=C(O)c1cn2c(cc1=O)-c1c(-c3ccccc3F)c(-c3ccccc3F)nn1CC2` [Example 202, 1,2-bis(2-fluorophenyl)-10-oxo-5,6-dihydro-10H-pyrazolo[1,5-a]pyrido[2,1-c]pyrazine-9-carboxylic acid] gave an EC50 below 0.1 µM.
Turning to `CC(C)(C)[C@@H]1Cn2nc(-c3ccc(F)cc3)c(Cl)c2-c2cc(=O)c(C(=O)O)cn21` [Example 87, (R)-6-(tert-butyl)-1-chloro-2-(4-fluorophenyl)-10-oxo-5,6-dihydro-10H-pyrazolo[1,5-a]pyrido[2,1-c]pyrazine-9-carboxylic acid], the EC50 was below 0.1 µM.
As to `CC(C)[C@@H]1Cn2nc(-c3ccncc3)c(-c3ccncc3)c2-c2c(F)c(=O)c(C(=O)O)cn21` [Example 184, (R)-11-fluoro-6-isopropyl-10-oxo-1,2-di(pyridin-4-yl)-5,6-dihydro-10H-pyrazolo[1,5-a]pyrido[2,1-c]pyrazine-9-carboxylic acid], the concentration giving a half-maximal response (EC50) is 0.2 to 1 µM.
Under `CC(C)[C@@H]1Cn2nc(-c3ccncc3)c(-c3ccncc3)c2-c2cc(=O)c(C(=O)O)cn21` [Example 175, (R)-6-isopropyl-10-oxo-1,2-di(pyridin-4-yl)-5,6-dihydro-10H-pyrazolo[1,5-a]pyrido[2,1-c]pyrazine-9-carboxylic acid] stands 0.2 to 1 µM; under `CC(C)(C)[C@@H]1Cn2ncc(-c3ccncc3)c2-c2cc(=O)c(C(=O)O)cn21` [Example 119, (R)-6-(tert-butyl)-10-oxo-1-(pyridin-4-yl)-5,6-dihydro-10H-pyrazolo[1,5-a]pyrido[2,1-c]pyrazine-9-carboxylic acid], below 0.1 µM; under `CC(C)(C)[C@@H]1Cn2nc(-c3ccc(F)cc3)c(-c3ccoc3)c2-c2cc(=O)c(C(=O)O)cn21` [Example 167, (R)-6-(tert-butyl)-2-(4-fluorophenyl)-1-(furan-3-yl)-10-oxo-5,6-dihydro-10H-pyrazolo[1,5-a]pyrido[2,1-c]pyrazine-9-carboxylic acid], below 0.1 µM.
Under `CC(C)[C@@H]1Cn2nc(-c3ccc(OC4CC4)cc3)c(-c3ccc(OC4CC4)cc3)c2-c2cc(=O)c(C(=O)O)cn21` [Example 176, (R)-1,2-bis(4-cyclopropoxyphenyl)-6-isopropyl-10-oxo-5,6-dihydro-10H-pyrazolo[1,5-a]pyrido[2,1-c]pyrazine-9-carboxylic acid] stands 0.2 to 1 µM; under `CC(C)(C)[C@@H]1Cn2ncc(-c3ccc(OC(F)(F)F)cc3)c2-c2cc(=O)c(C(=O)O)cn21` [Example 117, (R)-6-(tert-butyl)-10-oxo-1-(4-(trifluoromethoxy)phenyl)-5,6-dihydro-10H-pyrazolo[1,5-a]pyrido[2,1-c]pyrazine-9-carboxylic acid], above 1 µM; under `CC(C)[C@@H]1Cn2nc(C3CC3)c(-c3ccncc3)c2-c2cc(=O)c(C(=O)O)cn21` [Example 144, (R)-2-cyclopropyl-6-isopropyl-10-oxo-1-(pyridin-4-yl)-5,6-dihydro-10H-pyrazolo[1,5-a]pyrido[2,1-c]pyrazine-9-carboxylic acid], below 0.1 µM.
As for `CC(C)(C)[C@@H]1Cn2ncc(-c3cncnc3)c2-c2cc(=O)c(C(=O)O)cn21` [Example 120, (R)-6-(tert-butyl)-10-oxo-1-(pyrimidin-5-yl)-5,6-dihydro-10H-pyrazolo[1,5-a]pyrido[2,1-c]pyrazine-9-carboxylic acid], the EC50 was above 1 µM.
To `CC(C)[C@@H]1Cn2nc(-c3cccc(Cl)c3)c(-c3cccc(Cl)c3)c2-c2c(F)c(=O)c(C(=O)O)cn21` [Example 185, (R)-1,2-bis(3-chlorophenyl)-11-fluoro-6-isopropyl-10-oxo-5,6-dihydro-10H-pyrazolo[1,5-a]pyrido[2,1-c]pyrazine-9-carboxylic acid] belongs 0.2 to 1 µM; to `CC(C)[C@@H]1Cn2nc(-c3cccc(O)c3)c(-c3cccc(O)c3)c2-c2cc(=O)c(C(=O)O)cn21` [Example 178, (R)-1,2-bis(3-hydroxyphenyl)-6-isopropyl-10-oxo-5,6-dihydro-10H-pyrazolo[1,5-a]pyrido[2,1-c]pyrazine-9-carboxylic acid], below 0.1 µM.
